Reference: patent US20240051985A1, “METTL3 MODULATORS” (ACCENT THERAPEUTICS, INC., priority 2020, published 2024)

target: METTL3/METTL14 (Homo sapiens, UniProt Q86U44); assay: METTL3-14 standard enzyme assay (3H-SAM flashplate); details: Table 4; METTL3 biochemical assay
Outline: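 Radiometric methyltransferase read-out: after quenching with excess unlabelled SAM (15 μM), biotinylated RNA was captured on streptavidin flashplates (2 h, 25° C) and counted. Reactions contained 2.5 nM enzyme (5 min preincubation), 100 nM RNA and 100 nM 3H-SAM, ran 30 min in HEPES pH 7.5 buffer with KCl, MgCl2, DTT.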

Chain of METTL3/METTL14 (Q86U44 whole entry, species assumed): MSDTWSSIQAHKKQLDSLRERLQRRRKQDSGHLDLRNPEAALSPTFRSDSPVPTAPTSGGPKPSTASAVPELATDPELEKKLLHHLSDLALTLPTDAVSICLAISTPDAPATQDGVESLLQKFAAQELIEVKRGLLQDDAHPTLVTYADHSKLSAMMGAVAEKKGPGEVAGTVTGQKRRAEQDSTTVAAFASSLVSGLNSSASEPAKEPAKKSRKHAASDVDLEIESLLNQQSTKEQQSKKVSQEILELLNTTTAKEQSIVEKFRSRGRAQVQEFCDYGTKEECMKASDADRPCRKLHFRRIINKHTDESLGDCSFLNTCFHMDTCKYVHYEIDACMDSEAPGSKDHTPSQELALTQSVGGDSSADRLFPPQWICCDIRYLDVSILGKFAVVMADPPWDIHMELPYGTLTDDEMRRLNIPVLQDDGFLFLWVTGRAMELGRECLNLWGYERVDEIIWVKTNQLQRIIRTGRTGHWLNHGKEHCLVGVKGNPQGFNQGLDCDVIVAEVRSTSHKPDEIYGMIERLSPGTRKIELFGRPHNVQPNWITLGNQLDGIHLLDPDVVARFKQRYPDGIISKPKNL
Chain of METTL3/METTL14 (Q9HCE5 whole entry partner, species assumed): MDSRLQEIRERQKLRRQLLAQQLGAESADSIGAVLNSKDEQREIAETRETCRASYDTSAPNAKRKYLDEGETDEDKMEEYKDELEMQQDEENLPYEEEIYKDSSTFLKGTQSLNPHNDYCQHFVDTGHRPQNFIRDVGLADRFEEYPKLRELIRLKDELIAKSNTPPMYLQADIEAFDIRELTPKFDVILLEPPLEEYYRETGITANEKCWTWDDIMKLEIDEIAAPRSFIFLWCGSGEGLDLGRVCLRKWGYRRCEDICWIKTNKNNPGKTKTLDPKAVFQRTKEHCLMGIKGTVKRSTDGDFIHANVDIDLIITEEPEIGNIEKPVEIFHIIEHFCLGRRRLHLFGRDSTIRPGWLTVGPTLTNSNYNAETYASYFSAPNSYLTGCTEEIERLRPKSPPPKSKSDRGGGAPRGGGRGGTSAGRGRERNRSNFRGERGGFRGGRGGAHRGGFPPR

Row | Structure (SMILES) | IC50
1 | Cn1ccc(-c2cn([C@@H]3O[C@H](C(=O)Nc4cc(NC5CCC5)ccn4)[C@@H](O)[C@H]3O)c3ncnc(N)c23)n1 [Compound I-162] | 100 to 1000 nM
2 | Cn1ccc(-c2cn([C@@H]3O[C@H](C(=O)Nc4cc(NCC5CC5)ccn4)[C@@H](O)[C@H]3O)c3ncnc(N)c23)n1 [Compound I-163] | 100 to 1000 nM
3 | Cn1ccc(-c2cn([C@@H]3O[C@H](C(=O)Nc4cc(NC5CCC5)ncn4)[C@@H](O)[C@H]3O)c3ncnc(N)c23)n1 [Compound I-164] | ≥ 1000 nM
4 | COCCNc1ccnc(NC(=O)[C@H]2O[C@@H](n3cc(-c4ccn(C)n4)c4c(N)ncnc43)[C@H](O)[C@@H]2O)c1 [Compound I-165] | 100 to 1000 nM
5 | CN(C)c1ccnc(NC(=O)[C@H]2O[C@@H](n3cc(-c4ccn(C)n4)c4c(N)ncnc43)[C@H](O)[C@@H]2O)c1 [Compound I-166] | 100 to 1000 nM
6 | Cn1ccc(-c2cn([C@@H]3O[C@H](C(=O)Nc4ccnc(NC5CCC5)c4)[C@@H](O)[C@H]3O)c3ncnc(N)c23)n1 [Compound I-167] | 100 to 1000 nM
7 | Cn1ccc(-c2cn([C@@H]3O[C@H](C(=O)Nc4cc(N5CCC5)ccn4)[C@@H](O)[C@H]3O)c3ncnc(N)c23)n1 [Compound I-168] | 100 to 1000 nM
8 | Cn1ccc(-c2cn([C@@H]3O[C@H](C(=O)Nc4cc(NCC(F)F)ccn4)[C@@H](O)[C@H]3O)c3ncnc(N)c23)n1 [Compound I-169] | 100 to 1000 nM
9 | Cn1ccc(-c2cn([C@@H]3O[C@H](C(=O)Nc4cc[nH]n4)[C@@H](O)[C@H]3O)c3ncnc(N)c23)n1 [Compound I-170] | ≥ 1000 nM

target: PRMT5-MEP50 (Homo sapiens, UniProt O14744); assay: PRMT5 assay (3H-SAM flashplate); details: Table 4; PRMT5 biochemical assay
Sequence (O14744 whole entry): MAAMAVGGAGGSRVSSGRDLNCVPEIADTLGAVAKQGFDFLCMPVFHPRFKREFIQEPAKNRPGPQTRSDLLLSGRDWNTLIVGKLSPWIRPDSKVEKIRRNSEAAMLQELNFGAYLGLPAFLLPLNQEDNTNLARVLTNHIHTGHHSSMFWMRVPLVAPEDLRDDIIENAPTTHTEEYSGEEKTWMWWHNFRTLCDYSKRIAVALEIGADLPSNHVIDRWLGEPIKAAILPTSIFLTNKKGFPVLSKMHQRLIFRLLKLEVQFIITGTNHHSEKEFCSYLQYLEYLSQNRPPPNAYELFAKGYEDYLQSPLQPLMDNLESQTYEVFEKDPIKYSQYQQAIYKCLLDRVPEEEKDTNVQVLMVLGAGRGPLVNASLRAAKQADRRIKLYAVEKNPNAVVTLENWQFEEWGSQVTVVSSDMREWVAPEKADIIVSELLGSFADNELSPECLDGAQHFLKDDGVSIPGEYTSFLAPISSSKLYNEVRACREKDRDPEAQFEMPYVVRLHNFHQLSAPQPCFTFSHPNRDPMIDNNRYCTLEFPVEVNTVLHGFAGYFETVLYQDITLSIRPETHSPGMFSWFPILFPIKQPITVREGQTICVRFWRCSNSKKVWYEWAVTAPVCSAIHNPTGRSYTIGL
Sequence (Q9BQA1 whole entry partner): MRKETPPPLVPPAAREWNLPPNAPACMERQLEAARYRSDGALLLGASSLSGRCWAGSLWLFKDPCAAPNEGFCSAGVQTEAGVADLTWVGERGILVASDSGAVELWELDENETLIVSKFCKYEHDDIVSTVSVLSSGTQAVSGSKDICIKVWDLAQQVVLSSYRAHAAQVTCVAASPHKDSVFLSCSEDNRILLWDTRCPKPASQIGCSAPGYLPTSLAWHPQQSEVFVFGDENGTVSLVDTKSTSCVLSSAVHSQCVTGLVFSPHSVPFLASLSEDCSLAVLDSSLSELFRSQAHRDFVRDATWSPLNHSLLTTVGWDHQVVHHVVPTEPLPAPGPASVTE
Outline: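 Radiometric methyl-transfer read-out: 3H-methyl transferred to a 3′-biotinylated, acetylated H4 peptide substrate (100 nM) from 3H-SAM (250 nM), captured on streptavidin scintillation plates. Enzyme complex 2.5 nM, pH 8.0 Tris buffer with DTT and Tween, compound preincubation 5 min, 60 min reaction stopped with excess unlabeled SAM.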

Row | Structure (SMILES) | IC50
10 | Cn1ccc(-c2cn([C@@H]3O[C@H](C(=O)Nc4cc(NC5CCC5)ccn4)[C@@H](O)[C@H]3O)c3ncnc(N)c23)n1 [Compound I-162] | 10 to 100 nM
11 | Cn1ccc(-c2cn([C@@H]3O[C@H](C(=O)Nc4cc(NCC5CC5)ccn4)[C@@H](O)[C@H]3O)c3ncnc(N)c23)n1 [Compound I-163] | 10 to 100 nM
12 | Cn1ccc(-c2cn([C@@H]3O[C@H](C(=O)Nc4cc(NC5CCC5)ncn4)[C@@H](O)[C@H]3O)c3ncnc(N)c23)n1 [Compound I-164] | 100 to 1000 nM
13 | COCCNc1ccnc(NC(=O)[C@H]2O[C@@H](n3cc(-c4ccn(C)n4)c4c(N)ncnc43)[C@H](O)[C@@H]2O)c1 [Compound I-165] | 100 to 1000 nM
14 | CN(C)c1ccnc(NC(=O)[C@H]2O[C@@H](n3cc(-c4ccn(C)n4)c4c(N)ncnc43)[C@H](O)[C@@H]2O)c1 [Compound I-166] | 10 to 100 nM
15 | Cn1ccc(-c2cn([C@@H]3O[C@H](C(=O)Nc4ccnc(NC5CCC5)c4)[C@@H](O)[C@H]3O)c3ncnc(N)c23)n1 [Compound I-167] | 100 to 1000 nM
16 | Cn1ccc(-c2cn([C@@H]3O[C@H](C(=O)Nc4cc(N5CCC5)ccn4)[C@@H](O)[C@H]3O)c3ncnc(N)c23)n1 [Compound I-168] | 10 to 100 nM
17 | Cn1ccc(-c2cn([C@@H]3O[C@H](C(=O)Nc4cc(NCC(F)F)ccn4)[C@@H](O)[C@H]3O)c3ncnc(N)c23)n1 [Compound I-169] | 100 to 1000 nM
18 | Cn1ccc(-c2cn([C@@H]3O[C@H](C(=O)Nc4cc[nH]n4)[C@@H](O)[C@H]3O)c3ncnc(N)c23)n1 [Compound I-170] | ≥ 1000 nM

target: T1, FLT3 (Homo sapiens, UniProt P36888); assay: FLT3 Caliper assay; type: biochemical; details: Table 4; read-out: FLT3 Calipher assay IC50
T1 sequence (P36888 27-993): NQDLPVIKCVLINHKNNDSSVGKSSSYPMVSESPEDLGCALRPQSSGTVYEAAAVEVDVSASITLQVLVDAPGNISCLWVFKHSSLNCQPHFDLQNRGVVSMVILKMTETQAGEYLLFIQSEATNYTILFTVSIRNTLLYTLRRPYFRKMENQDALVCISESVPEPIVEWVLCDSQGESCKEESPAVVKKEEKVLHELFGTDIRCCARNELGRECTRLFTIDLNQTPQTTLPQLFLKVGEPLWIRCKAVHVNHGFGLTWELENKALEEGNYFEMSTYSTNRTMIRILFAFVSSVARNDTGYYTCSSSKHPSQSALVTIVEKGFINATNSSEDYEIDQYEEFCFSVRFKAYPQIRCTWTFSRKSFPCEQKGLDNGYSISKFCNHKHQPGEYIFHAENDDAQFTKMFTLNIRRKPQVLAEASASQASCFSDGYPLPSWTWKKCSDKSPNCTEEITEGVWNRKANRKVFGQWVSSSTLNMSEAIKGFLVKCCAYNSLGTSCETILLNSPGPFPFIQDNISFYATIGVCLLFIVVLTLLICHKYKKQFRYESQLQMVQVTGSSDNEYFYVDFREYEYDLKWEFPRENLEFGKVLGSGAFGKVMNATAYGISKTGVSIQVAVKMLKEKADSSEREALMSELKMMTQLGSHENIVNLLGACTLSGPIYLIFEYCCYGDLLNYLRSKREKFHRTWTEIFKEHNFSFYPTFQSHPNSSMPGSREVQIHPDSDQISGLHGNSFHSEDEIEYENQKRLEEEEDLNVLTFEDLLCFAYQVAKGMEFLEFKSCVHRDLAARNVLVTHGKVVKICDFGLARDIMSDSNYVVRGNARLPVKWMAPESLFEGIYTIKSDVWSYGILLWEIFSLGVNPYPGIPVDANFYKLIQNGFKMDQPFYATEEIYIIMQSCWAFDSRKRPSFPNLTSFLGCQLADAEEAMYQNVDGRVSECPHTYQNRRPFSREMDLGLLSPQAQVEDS
Procedure: (§1) FLT3/FLT3-ITD Caliper Assays
(§2) Assays were performed in a 20 μl-volume in 384-well polypropylene microplates (Perkin Elmer Proxiplate, cat. No. 6059480) at ambient temperature. Optimized 1× assay buffer was 50 mM Hepes pH 7.5, 2 mM DTT, 0.01% Tween, 0.01% BSA, 10 mM MgCl2. For compound screening FLT3 (final concentration, f.c.=0.9 nM) or FLT3-ITD (f.c.=7 nM) was added using a Multidrop Combi (ThermoFisher Scientific, Waltham, MA) and preincubated for 10 min. Reactions were started by adding fluorescein-peptide (sequence 5-FAM-EAIYAAPFAKKK-CONH2) (f.c.=300 μM) and ATP (FLT3 f.c.=97 μM FLT3-ITD f.c.=146 μM) substrates. Reactions proceeded for 60 minutes. The reactions were stopped with LabChip ProfilerPro Separation Buffer containing EDTA (f.c.=20 mM). The plates were read on a Caliper microfluidics reader (PerkinElmer, Waltham, MA).

Row | Structure (SMILES) | IC50
19 | Cn1ccc(-c2cn([C@@H]3O[C@H](C(=O)Nc4cc(NC5CCC5)ccn4)[C@@H](O)[C@H]3O)c3ncnc(N)c23)n1 [Compound I-162] | ≥ 1000 nM
20 | Cn1ccc(-c2cn([C@@H]3O[C@H](C(=O)Nc4cc(NCC5CC5)ccn4)[C@@H](O)[C@H]3O)c3ncnc(N)c23)n1 [Compound I-163] | ≥ 1000 nM
21 | Cn1ccc(-c2cn([C@@H]3O[C@H](C(=O)Nc4cc(NC5CCC5)ncn4)[C@@H](O)[C@H]3O)c3ncnc(N)c23)n1 [Compound I-164] | ≥ 1000 nM
22 | COCCNc1ccnc(NC(=O)[C@H]2O[C@@H](n3cc(-c4ccn(C)n4)c4c(N)ncnc43)[C@H](O)[C@@H]2O)c1 [Compound I-165] | ≥ 1000 nM
23 | CN(C)c1ccnc(NC(=O)[C@H]2O[C@@H](n3cc(-c4ccn(C)n4)c4c(N)ncnc43)[C@H](O)[C@@H]2O)c1 [Compound I-166] | ≥ 1000 nM
24 | Cn1ccc(-c2cn([C@@H]3O[C@H](C(=O)Nc4ccnc(NC5CCC5)c4)[C@@H](O)[C@H]3O)c3ncnc(N)c23)n1 [Compound I-167] | ≥ 1000 nM
25 | Cn1ccc(-c2cn([C@@H]3O[C@H](C(=O)Nc4cc(N5CCC5)ccn4)[C@@H](O)[C@H]3O)c3ncnc(N)c23)n1 [Compound I-168] | ≥ 1000 nM
26 | Cn1ccc(-c2cn([C@@H]3O[C@H](C(=O)Nc4cc(NCC(F)F)ccn4)[C@@H](O)[C@H]3O)c3ncnc(N)c23)n1 [Compound I-169] | ≥ 1000 nM
27 | Cn1ccc(-c2cn([C@@H]3O[C@H](C(=O)Nc4cc[nH]n4)[C@@H](O)[C@H]3O)c3ncnc(N)c23)n1 [Compound I-170] | 100 to 1000 nM

target: T2, FLT3-ITD (Homo sapiens, UniProt P36888); assay: FLT3-ITD Caliper assay; type: biochemical; details: Table 4; read-out: FLT3-ITD Calipher assay IC50
T2 sequence (P36888 1-993): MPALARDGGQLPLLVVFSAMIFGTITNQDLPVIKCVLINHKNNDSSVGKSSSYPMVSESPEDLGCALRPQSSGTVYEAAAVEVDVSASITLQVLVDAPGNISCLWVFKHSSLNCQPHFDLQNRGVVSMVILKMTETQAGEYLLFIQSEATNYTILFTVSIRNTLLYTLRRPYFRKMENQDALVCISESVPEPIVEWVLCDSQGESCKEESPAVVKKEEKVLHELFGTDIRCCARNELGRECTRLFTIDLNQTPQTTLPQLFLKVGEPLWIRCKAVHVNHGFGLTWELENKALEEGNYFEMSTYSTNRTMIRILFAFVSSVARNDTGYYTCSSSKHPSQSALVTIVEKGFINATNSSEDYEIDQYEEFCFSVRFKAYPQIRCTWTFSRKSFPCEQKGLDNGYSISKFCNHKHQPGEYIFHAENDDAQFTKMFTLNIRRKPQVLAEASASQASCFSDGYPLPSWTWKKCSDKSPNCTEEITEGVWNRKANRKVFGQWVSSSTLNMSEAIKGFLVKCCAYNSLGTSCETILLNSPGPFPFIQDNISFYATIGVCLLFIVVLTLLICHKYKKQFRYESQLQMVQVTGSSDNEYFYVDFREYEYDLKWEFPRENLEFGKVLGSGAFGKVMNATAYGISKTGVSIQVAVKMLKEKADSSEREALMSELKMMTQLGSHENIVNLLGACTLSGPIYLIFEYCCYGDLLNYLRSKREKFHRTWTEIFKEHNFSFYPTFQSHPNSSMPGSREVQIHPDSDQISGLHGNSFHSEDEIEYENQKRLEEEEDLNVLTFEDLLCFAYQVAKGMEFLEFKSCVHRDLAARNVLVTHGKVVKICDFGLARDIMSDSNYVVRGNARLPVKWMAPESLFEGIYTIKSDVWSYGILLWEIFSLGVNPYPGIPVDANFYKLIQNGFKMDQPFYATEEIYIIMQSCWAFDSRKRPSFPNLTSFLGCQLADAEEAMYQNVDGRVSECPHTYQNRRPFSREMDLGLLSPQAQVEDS
Procedure: as §1, §2

Row | Structure (SMILES) | IC50
28 | Cn1ccc(-c2cn([C@@H]3O[C@H](C(=O)Nc4cc(NC5CCC5)ccn4)[C@@H](O)[C@H]3O)c3ncnc(N)c23)n1 [Compound I-162] | ≥ 1000 nM
29 | Cn1ccc(-c2cn([C@@H]3O[C@H](C(=O)Nc4cc(NCC5CC5)ccn4)[C@@H](O)[C@H]3O)c3ncnc(N)c23)n1 [Compound I-163] | ≥ 1000 nM
30 | Cn1ccc(-c2cn([C@@H]3O[C@H](C(=O)Nc4cc(NC5CCC5)ncn4)[C@@H](O)[C@H]3O)c3ncnc(N)c23)n1 [Compound I-164] | ≥ 1000 nM
31 | COCCNc1ccnc(NC(=O)[C@H]2O[C@@H](n3cc(-c4ccn(C)n4)c4c(N)ncnc43)[C@H](O)[C@@H]2O)c1 [Compound I-165] | ≥ 1000 nM
32 | CN(C)c1ccnc(NC(=O)[C@H]2O[C@@H](n3cc(-c4ccn(C)n4)c4c(N)ncnc43)[C@H](O)[C@@H]2O)c1 [Compound I-166] | ≥ 1000 nM
33 | Cn1ccc(-c2cn([C@@H]3O[C@H](C(=O)Nc4ccnc(NC5CCC5)c4)[C@@H](O)[C@H]3O)c3ncnc(N)c23)n1 [Compound I-167] | ≥ 1000 nM
34 | Cn1ccc(-c2cn([C@@H]3O[C@H](C(=O)Nc4cc(N5CCC5)ccn4)[C@@H](O)[C@H]3O)c3ncnc(N)c23)n1 [Compound I-168] | ≥ 1000 nM
35 | Cn1ccc(-c2cn([C@@H]3O[C@H](C(=O)Nc4cc(NCC(F)F)ccn4)[C@@H](O)[C@H]3O)c3ncnc(N)c23)n1 [Compound I-169] | ≥ 1000 nM
36 | Cn1ccc(-c2cn([C@@H]3O[C@H](C(=O)Nc4cc[nH]n4)[C@@H](O)[C@H]3O)c3ncnc(N)c23)n1 [Compound I-170] | 100 to 1000 nM
